The test system of assay [1] is HeLa. Nature of the assay: Cytotoxicity against human HeLa cells after 48 hrs by MTT assay. Type of assay: functional, cell-based. On the technique in general: Formazan colour is commonly taken as a measure of viable cells.
The test system of assay [2] is HL-60. As to the kind of experiment: Cytotoxicity against human HL60 cells after 48 hrs by MTT assay. The class given is functional, cell-based. The conditions noted are these: HL-60, 48 h.
In assay [3] the test system is K562. Nature of the assay: Cytotoxicity against human K562 cells after 48 hrs by MTT assay. The class given is functional, cell-based. The conditions noted are these: K562, 48 h.
In assay [4] the test system is A549. Nature of the assay: Cytotoxicity against human A549 cells after 48 hrs by MTT assay. Type of assay: functional, cell-based. The conditions noted are these: A549, 48 h.
The target of assay [5] is T1, DNA topoisomerase 2-alpha (Homo sapiens, UniProt P11388). As to the kind of experiment: Inhibition of human DNA topoisomerase 2alpha-mediated relaxation of supercoiled pBR322 at 20 uM after 30 mins by agarose gel electrophoresis.
T1 sequence (P11388 whole entry): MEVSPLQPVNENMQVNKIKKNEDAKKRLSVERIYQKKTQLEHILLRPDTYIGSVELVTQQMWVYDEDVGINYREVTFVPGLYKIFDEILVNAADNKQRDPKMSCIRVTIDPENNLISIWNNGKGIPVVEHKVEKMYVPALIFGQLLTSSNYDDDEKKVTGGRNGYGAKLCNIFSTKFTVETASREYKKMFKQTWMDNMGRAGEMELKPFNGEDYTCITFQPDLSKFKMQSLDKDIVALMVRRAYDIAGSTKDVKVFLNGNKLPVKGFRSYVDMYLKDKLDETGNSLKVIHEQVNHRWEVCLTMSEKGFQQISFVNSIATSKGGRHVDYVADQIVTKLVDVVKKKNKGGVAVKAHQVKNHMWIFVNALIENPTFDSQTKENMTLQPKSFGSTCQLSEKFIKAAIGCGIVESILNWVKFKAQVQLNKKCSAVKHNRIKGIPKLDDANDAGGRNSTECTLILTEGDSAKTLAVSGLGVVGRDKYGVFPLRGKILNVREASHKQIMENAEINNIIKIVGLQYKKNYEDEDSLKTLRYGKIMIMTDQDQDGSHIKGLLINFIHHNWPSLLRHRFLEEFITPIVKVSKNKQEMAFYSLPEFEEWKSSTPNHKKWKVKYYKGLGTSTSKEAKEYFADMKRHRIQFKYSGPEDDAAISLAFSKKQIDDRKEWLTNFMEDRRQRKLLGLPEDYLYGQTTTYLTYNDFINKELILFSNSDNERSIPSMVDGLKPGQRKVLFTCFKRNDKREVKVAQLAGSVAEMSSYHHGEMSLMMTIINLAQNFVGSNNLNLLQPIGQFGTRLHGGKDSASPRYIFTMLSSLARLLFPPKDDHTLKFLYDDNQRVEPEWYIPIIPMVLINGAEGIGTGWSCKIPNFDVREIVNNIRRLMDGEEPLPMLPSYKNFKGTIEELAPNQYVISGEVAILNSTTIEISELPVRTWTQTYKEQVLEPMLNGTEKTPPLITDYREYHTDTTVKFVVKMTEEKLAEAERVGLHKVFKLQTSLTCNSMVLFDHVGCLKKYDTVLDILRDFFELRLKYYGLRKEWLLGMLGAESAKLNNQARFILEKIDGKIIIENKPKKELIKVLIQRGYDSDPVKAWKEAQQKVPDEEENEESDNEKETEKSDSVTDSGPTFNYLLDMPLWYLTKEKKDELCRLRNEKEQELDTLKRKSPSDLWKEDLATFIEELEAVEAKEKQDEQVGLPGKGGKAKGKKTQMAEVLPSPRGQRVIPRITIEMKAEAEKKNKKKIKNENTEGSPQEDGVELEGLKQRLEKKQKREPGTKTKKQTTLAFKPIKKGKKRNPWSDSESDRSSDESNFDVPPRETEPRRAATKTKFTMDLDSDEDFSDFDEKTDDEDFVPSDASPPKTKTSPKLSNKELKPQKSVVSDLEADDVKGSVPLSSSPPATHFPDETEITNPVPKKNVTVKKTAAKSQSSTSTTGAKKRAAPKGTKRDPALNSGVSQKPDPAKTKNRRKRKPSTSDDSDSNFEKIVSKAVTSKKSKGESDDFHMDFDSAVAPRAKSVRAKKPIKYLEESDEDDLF
The target of assay [6] is T1, DNA topoisomerase 2-alpha. As to the kind of experiment: Inhibition of human DNA topoisomerase 2alpha using pBR322 DNA at 2 uM after 30 mins by agarose gel electrophoresis.

Broadly, the IC50 is the concentration needed to halve the response being measured. A lower IC50 goes with inhibition by little substance.

Calls of active or inactive are those of the source. The calls are words filed in the database; no cut-off is given here.

As to `O=C1C(=O)c2cccc3c2C(=C1Cl)OCC3n1cc(-c2ccccn2)nn1` (stereo not drawn), the IC50 stood at 28.9 µM in assay [1], 2.7 µM in assay [2], 5.87 µM in assay [3] and 17.8 µM in assay [4]. In addition, the inhibition result in assay [5] and in assay [6] was “Active” in each case.
Regarding `O=C1C(=O)c2cccc3c2C(=C1Cl)OCC3n1cc(-c2ccc(Cl)cc2)nn1` (stereo not drawn), the IC50 in assay [1] is 67.4 µM; in assay [2] it was 12.2 µM; in assay [3] it was 20.6 µM; in assay [4], 77.7 µM. For the same molecule, the inhibition entry in assay [5] and in assay [6] was “Active” in each case.
On to `COC(=O)c1nnn(C2COC3=C(Br)C(=O)C(=O)c4cccc2c43)c1C(=O)OC` (stereo not drawn), for which the 50% inhibitory concentration (IC50) in assay [1], in assay [2], in assay [3] and in assay [4] was > 50 µM each time. Moreover, the inhibition entry in assay [5] and in assay [6] was “Active” in each case.
Turning to `Cc1ccc(-c2cn(C3COC4=C(Cl)C(=O)C(=O)c5cccc3c54)nn2)cc1` (stereo not drawn), the IC50 was determined as 32.8 µM in assay [1], 19.8 µM in assay [2], 18.3 µM in assay [3] and 55.5 µM in assay [4]. In addition, the inhibition entry in assay [5] and in assay [6] was “Active” each time.
Consider `CCCCCc1ccc(-c2cn(C3COC4=C(Cl)C(=O)C(=O)c5cccc3c54)nn2)cc1` (stereo not drawn), for which the half-maximal inhibitory concentration (IC50) in assay [1] amounted to 16.9 µM; in assay [2], 3.54 µM; in assay [3], 3.51 µM; in assay [4] it was 12.8 µM. Moreover, the inhibition entry in assay [5] and in assay [6] was “Active” in each case.
On to `O=C1C(=O)c2cccc3c2C(=C1Br)OCC3n1cc(-c2ccc(F)cc2)nn1` (stereo not drawn), for which the IC50 turned out to be 30.2 µM in assay [1], 12.3 µM in assay [2], 35.5 µM in assay [3] and 50 µM in assay [4]. Further, the inhibition result in assay [5] and in assay [6] was “Active” throughout.
Turning to `O=C1C(=O)c2cccc3c2C(=C1Br)OCC3n1cc(-c2ccccn2)nn1` (stereo not drawn), the half-inhibitory concentration (IC50) turned out to be 16.2 µM in assay [1], 2.11 µM in assay [2], 3.23 µM in assay [3] and 15.3 µM in assay [4]. Also, the inhibition result in assay [5] and in assay [6] was “Active” each time.
As for `CCc1ccc(-c2cn(C3COC4=C(Br)C(=O)C(=O)c5cccc3c54)nn2)cc1` (stereo not drawn), the IC50 in assay [1] came to 16.7 µM; in assay [2], 4.94 µM; in assay [3], 14.4 µM; in assay [4], 22.9 µM. In addition, the inhibition entry in assay [5] and in assay [6] was “Active” each time.
For `COC(=O)c1cn(C2COC3=C(Cl)C(=O)C(=O)c4cccc2c43)nn1` (stereo not drawn), the IC50 in assay [1] is > 100 µM; in assay [2], 98 µM; in assay [3], > 50 µM; in assay [4], > 100 µM. Also, the inhibition result in assay [5] and in assay [6] was “Active” each time.
As to `O=C1C(=O)c2cccc3c2C(=C1Cl)OCC3n1cc(-c2ccc(F)cc2)nn1` (stereo not drawn), the IC50 was 48.4 µM in assay [1], 10.7 µM in assay [2], 16.7 µM in assay [3] and 43.1 µM in assay [4]. Also, the inhibition entry in assay [5] and in assay [6] was “Active” throughout.
In the case of `CCCCc1ccc(-c2cn(C3COC4=C(Br)C(=O)C(=O)c5cccc3c54)nn2)cc1` (stereo not drawn), the IC50 amounted to 12.5 µM in assay [1], 2.55 µM in assay [2], 3.87 µM in assay [3] and 18.3 µM in assay [4]. Besides, the inhibition entry in assay [5] and in assay [6] was “Active” in each case.
Consider `O=C1C(=O)c2cccc3c2C(=C1Br)OCC3n1cc(-c2ccccc2)nn1` (stereo not drawn), for which the IC50 in assay [1] is 42.9 µM; in assay [2], 29.3 µM; in assay [3], 40.1 µM; in assay [4] it was 50 µM. For the same molecule, the inhibition result in assay [5] and in assay [6] was “Active” each time.
Take `O=C1C(=O)c2cccc3c2C(=C1Br)OCC3n1cc(C2CC2)nn1` (stereo not drawn): the IC50 was 43.1 µM in assay [1], 22.7 µM in assay [2], 40.2 µM in assay [3] and > 50 µM in assay [4]. The inhibition entry in assay [5] and in assay [6] was “Active” each time.
For `O=C1C(=O)c2cccc3c2C(=C1Br)OCC3n1cc(-c2ccc(Cl)cc2)nn1` (stereo not drawn), the IC50 in assay [1] was found to be 30.6 µM; in assay [2], 15.4 µM; in assay [3] it was 29 µM; in assay [4] it was 50 µM. Further, the inhibition result in assay [5] and in assay [6] was “Active” each time.
As for `CCOC(=O)c1cn(C2COC3=C(Cl)C(=O)C(=O)c4cccc2c43)nn1` (stereo not drawn), the IC50 in assay [1] was > 100 µM; in assay [2] it was > 100 µM; in assay [3], > 50 µM; in assay [4], > 100 µM. For the same molecule, the inhibition entry in assay [5] and in assay [6] was “Active” throughout.
As to `CCCCc1ccc(-c2cn(C3COC4=C(Cl)C(=O)C(=O)c5cccc3c54)nn2)cc1` (stereo not drawn), the IC50 in assay [1] was found to be 18 µM; in assay [2], 2.55 µM; in assay [3], 5.67 µM; in assay [4] it was 11.4 µM. Also, the inhibition entry in assay [5] and in assay [6] was “Active” throughout.
`COC(=O)c1cn(C2COC3=C(Br)C(=O)C(=O)c4cccc2c43)nn1` (stereo not drawn): the half-maximal inhibitory concentration (IC50) in assay [1], in assay [2], in assay [3] and in assay [4] was > 50 µM each time. For the same molecule, the inhibition result in assay [5] and in assay [6] was “Active” each time.
Take `Cc1ccc(-c2cn(C3COC4=C(Br)C(=O)C(=O)c5cccc3c54)nn2)cc1` (stereo not drawn): the IC50 was 26.6 µM in assay [1], 10.3 µM in assay [2], 18.8 µM in assay [3] and 42.9 µM in assay [4]. In addition, the inhibition entry in assay [5] and in assay [6] was “Active” each time.
In the case of `CCCc1ccc(-c2cn(C3COC4=C(Cl)C(=O)C(=O)c5cccc3c54)nn2)cc1` (stereo not drawn), the IC50 in assay [1] turned out to be 24.4 µM; in assay [2], 2.38 µM; in assay [3], 3.86 µM; in assay [4], 28.3 µM. The inhibition result in assay [5] and in assay [6] was “Active” each time.
As for `COc1ccc(-c2cn(C3COC4=C(Cl)C(=O)C(=O)c5cccc3c54)nn2)cc1` (stereo not drawn), the IC50 in assay [1] turned out to be 40.9 µM; in assay [2], 7.08 µM; in assay [3] it was 29.8 µM; in assay [4], 51.1 µM. The inhibition entry in assay [5] and in assay [6] was “Active” in each case.
Turning to `COC(=O)c1nnn(C2COC3=C(Cl)C(=O)C(=O)c4cccc2c43)c1C(=O)OC` (stereo not drawn), the IC50 in assay [1] was > 100 µM; in assay [2], > 100 µM; in assay [3], > 50 µM; in assay [4] it was > 100 µM. Moreover, the inhibition entry in assay [5] and in assay [6] was “Active” throughout.
As to `O=C1C(=O)c2cccc3c2C(=C1Cl)OCC3n1cc(C2CC2)nn1` (stereo not drawn), the IC50 in assay [1] is > 100 µM; in assay [2], 50 µM; in assay [3] it was 50 µM; in assay [4], > 100 µM. In addition, the inhibition entry in assay [5] and in assay [6] was “Active” in each case.
For `O=C1C(=O)c2cccc3c2C(=C1Cl)OCC3n1cc(-c2ccccc2)nn1` (stereo not drawn), the concentration for half-maximal inhibition (IC50) in assay [1] is 70.2 µM; in assay [2] it was 18.4 µM; in assay [3], 21.4 µM; in assay [4], 84.5 µM. The inhibition result in assay [5] and in assay [6] was “Active” throughout.

These data come from ChEMBL document CHEMBL2424646, “Design, synthesis and biological evaluation of novel mansonone E derivatives prepared via CuAAC click chemistry as topoisomerase II inhibitors” (Eur J Med Chem, 2013).
